Patent US7511144B2, “Reverse hydroxamic acid derivatives” (Kaken Pharmaceutical Co., Ltd., priority 2001, dated 2009)
Read-outs that look alike come from different tables or passages of the source.

Key:
Format in all cases: biochemical
Human MMP1 = biological target: T1, Human MMP1 (Homo sapiens, UniProt P03956); experiment: MMP1 inhibition experiment; conditions: read-out: IC50 value MMP-1
T1 construct: purchased Calbiochem 444208
T1 sequence (P03956 100-469): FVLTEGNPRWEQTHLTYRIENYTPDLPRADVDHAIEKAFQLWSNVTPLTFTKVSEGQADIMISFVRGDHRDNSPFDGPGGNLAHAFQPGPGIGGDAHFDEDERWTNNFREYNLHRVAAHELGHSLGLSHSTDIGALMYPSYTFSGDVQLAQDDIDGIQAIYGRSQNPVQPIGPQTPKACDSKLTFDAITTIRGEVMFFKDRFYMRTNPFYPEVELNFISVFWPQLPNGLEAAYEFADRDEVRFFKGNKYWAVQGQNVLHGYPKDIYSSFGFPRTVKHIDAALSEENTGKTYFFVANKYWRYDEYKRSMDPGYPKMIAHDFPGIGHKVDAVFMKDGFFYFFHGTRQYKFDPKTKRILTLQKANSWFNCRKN

Human MMP3 = biological target: T2, Human MMP3 (Homo sapiens, UniProt P08254); experiment: MMP3 inhibition experiment; conditions: concentration required for 50% inhibition of enzyme activity; read-out: IC50 value MMP-3
T2 construct: purchased Calbiochem 444217
Description: (§1) MMP inhibition experiment may be carried out using a fluorescent synthetic substrate according to, for example, the methods of Bickett et al. (D. Mark Bickett et al., Anal. Biochem., 1993, 212, 58-64) and Nagase et al. (H. Nagase et al., J. Biol. Chem., 1994, 269, 20952-20957). The methods of inhibition experiments carried out for various MMPs are described below.
Human MMP3 (Calbiochem #444217) in 90 μL (5 ng) prepared in the assay buffer A was added to 90 μL of 20 μM fluorescent substrate NFF-3(MOCAc-Arg-Pro-Lys-Pro-Val-Glu-Nva-Trp-Arg-Lys(Dnp)-NH2, Peptide Institute, Inc., #3168-v) prepared in the assay buffer B, followed by reaction for 5 hours at 37° C.

Human MMP13 = biological target: T3, Human MMP13 (Homo sapiens, UniProt P45452); experiment: MMP13 inhibition experiment
T3 construct: purchased Chemicon CC068

Human MMP14 = biological target: T4, Human MMP14 (Homo sapiens, UniProt P50281); experiment: MMP14 inhibition experiment; conditions: concentration required for 50% inhibition of enzyme activity; read-out: IC50 value MMP-14
T4 construct: purchased Biogenesis or Calbiochem 5980-1461 or 475935
Description: as §1
Human MMP14 (Biogenesis #5980-1461 or Calbiochem #475935) in amount of 90 μL (4 ng) prepared in the assay buffer A was added to 90 μL of 20 μM fluorescent substrate (Dnp-Pro-Cha-Gly-Cys(Me)-His-Ala-Lys(Nma)-NH2) prepared in the assay buffer B, followed by reaction for 5 hours at 37° C.

Human MMP17 = biological target: T5, Human MMP17 (Homo sapiens, UniProt Q9ULZ9); experiment: MMP17 inhibition test; conditions: concentration required for 50% inhibition of enzyme activity; read-out: IC50 value MMP-17
T5 construct: purchased Calbiochem 475940
T5 sequence (Q9ULZ9 126-300 limits assumed): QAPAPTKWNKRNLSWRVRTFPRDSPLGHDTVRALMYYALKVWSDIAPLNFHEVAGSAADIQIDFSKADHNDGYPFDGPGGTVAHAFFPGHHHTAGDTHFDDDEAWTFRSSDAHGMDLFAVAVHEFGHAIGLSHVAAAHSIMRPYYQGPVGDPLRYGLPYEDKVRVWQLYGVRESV

TACE = biological target: T6, TACE (Homo sapiens, UniProt P78536); experiment: TACE inhibition experiment (in vitro)
T6 construct: made in house; host or cells: mammalian cells or insect cells

Human MMP9 = biological target: T7, Human MMP9 (Homo sapiens, UniProt P14780); experiment: MMP9 inhibition experiment; conditions: read-out: IC50 value MMP-9
T7 construct: purchased Calbiochem 444231

Human MMP2 = biological target: T8, Human MMP2 (Homo sapiens, UniProt P08253); experiment: MMP2 inhibition experiment; conditions: concentration required for 50% inhibition of enzyme activity; read-out: IC50 value MMP-2
T8 construct: purchased Calbiochem 444213
T8 sequence (P08253 110-660): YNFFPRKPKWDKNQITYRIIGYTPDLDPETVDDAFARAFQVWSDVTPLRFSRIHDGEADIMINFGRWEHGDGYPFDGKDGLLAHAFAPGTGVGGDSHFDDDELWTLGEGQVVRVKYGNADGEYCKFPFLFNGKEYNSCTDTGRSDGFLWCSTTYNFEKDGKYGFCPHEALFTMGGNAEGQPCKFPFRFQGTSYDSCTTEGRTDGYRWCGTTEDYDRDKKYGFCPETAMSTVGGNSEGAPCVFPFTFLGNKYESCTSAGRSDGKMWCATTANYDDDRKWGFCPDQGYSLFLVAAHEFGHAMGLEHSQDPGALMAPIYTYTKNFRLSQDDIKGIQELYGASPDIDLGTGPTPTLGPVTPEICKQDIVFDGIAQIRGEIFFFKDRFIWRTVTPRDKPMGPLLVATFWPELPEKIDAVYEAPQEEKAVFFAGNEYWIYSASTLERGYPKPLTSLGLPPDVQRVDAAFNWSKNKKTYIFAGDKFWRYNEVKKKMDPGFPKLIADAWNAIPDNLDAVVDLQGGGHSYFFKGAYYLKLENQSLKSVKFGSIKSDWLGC

[1] = concentration required for 50% inhibition of enzyme activity, read-out: IC50 value MMP-13
[2] = concentration required for 50% inhibition of enzyme activity

T6 sequence (P78536 215-824): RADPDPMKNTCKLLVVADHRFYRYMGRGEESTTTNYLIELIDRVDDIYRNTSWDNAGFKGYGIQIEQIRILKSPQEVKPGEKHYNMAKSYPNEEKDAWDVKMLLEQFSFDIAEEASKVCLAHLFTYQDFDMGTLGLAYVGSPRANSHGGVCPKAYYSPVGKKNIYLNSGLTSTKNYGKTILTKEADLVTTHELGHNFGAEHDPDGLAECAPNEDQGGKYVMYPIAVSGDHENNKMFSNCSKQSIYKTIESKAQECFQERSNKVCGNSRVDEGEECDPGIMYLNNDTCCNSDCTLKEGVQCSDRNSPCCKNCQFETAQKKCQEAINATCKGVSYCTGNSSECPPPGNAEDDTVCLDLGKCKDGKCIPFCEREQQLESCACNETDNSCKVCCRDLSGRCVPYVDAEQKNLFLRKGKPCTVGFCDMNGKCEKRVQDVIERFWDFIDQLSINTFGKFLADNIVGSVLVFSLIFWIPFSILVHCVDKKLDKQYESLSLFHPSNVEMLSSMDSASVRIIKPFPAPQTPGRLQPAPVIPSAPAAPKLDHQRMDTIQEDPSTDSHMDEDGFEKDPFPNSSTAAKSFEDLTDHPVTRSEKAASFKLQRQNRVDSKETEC
T2 sequence (P08254 100-272 limits assumed): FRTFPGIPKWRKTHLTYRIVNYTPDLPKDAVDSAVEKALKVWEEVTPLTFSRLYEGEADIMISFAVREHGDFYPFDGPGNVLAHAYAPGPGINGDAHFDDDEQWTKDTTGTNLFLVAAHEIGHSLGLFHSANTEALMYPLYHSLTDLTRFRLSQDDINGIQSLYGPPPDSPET
T7 sequence (P14780 107-707 limits assumed): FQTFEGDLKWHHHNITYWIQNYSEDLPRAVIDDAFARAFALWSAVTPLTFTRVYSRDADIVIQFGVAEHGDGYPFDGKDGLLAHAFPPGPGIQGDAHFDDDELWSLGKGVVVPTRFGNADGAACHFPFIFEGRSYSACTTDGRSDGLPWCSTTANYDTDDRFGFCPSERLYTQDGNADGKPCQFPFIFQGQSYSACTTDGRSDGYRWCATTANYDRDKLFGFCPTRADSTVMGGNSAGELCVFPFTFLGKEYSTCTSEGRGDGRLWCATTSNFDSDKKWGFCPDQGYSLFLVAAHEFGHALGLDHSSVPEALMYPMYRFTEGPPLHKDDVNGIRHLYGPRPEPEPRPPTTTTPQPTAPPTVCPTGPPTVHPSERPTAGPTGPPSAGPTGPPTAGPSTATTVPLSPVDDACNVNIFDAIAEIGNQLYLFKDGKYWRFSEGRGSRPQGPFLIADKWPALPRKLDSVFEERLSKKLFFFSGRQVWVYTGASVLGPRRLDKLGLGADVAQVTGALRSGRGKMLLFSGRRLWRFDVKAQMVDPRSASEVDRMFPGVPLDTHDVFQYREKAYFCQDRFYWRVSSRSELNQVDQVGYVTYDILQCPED

IC50 (Human MMP1) | IC50 (Human MMP3) | IC50 (Human MMP13; [1]) | IC50 (Human MMP14) | IC50 (Human MMP17) | IC50 (TACE; [2]) | IC50 (Human MMP9; [2]) | IC50 (TACE) | IC50 (Human MMP9) | IC50 (Human MMP2) | IC50 (Human MMP1; [2]) | IC50 (Human MMP13; IC50 value MMP-13, concentration required for 50% inhibition of enzyme activity) | Structure (SMILES)
50 µM | 6 µM | 7.3 µM | 40 µM | 2 µM |  |  |  |  |  |  |  | C=C1CCC(C(CS(=O)(=O)c2ccc(OCc3cc(C)nc4ccccc34)cc2)N(O)C=O)CC1 (centres unmarked) [Example I-1, N-hydroxy-N-[1-(4-methylenecyclohexyl)-2-{4-(2-methylquinolin-4-ylmethoxy)benzenesulfonyl}ethyl]formamide]
> 100 µM | 6.3 µM | 22 µM | 43 µM | 2.5 µM | 0.0035 µM | 50 µM |  |  |  |  |  | Cc1cc(COc2ccc(S(=O)(=O)CC(C=C3CCC(=O)CC3)N(O)C=O)cc2)c2ccccc2n1 (centres unmarked) [Example I-3, N-Hydroxy-N-[2-{4-(2-methylquinolin-4-ylmethoxy)benzenesulfonyl}-1-(4-oxocyclohexylidenemethyl)ethyl]formamide]
> 100 µM | 5 µM | 2.5 µM | 43 µM | 2 µM |  |  | 0.06 µM | 40 µM |  |  |  | C=C1CCC(C(CS(=O)(=O)c2ccc(OCc3cc(C)nc(C)c3)cc2)N(O)C=O)CC1 (centres unmarked) [Example I-4, N-[2-{4-(2,6-dimethylpyridin-4-ylmethoxy)benzenesulfonyl}-1-(4-methylenecyclohexyl)ethyl]-N-hydroxyformamide]
33 µM | 20 µM | 10 µM | 25 µM | 5 µM |  |  | 0.43 µM | 22 µM |  |  |  | C=C1CCC(C(CS(=O)(=O)c2ccc(OCc3cc(C)cc(C)c3)cc2)N(O)C=O)CC1 (centres unmarked) [Example I-5, N-[2-{4-(3,5-Dimethylbenzyloxy)benzenesulfonyl}-1-(4-methylenecyclohexyl)ethyl]-N-hydroxyformamide]
80 µM | 5 µM | 15 µM | 50 µM | 3 µM |  |  |  | 45 µM |  |  |  | Cc1cc(COc2ccc(S(=O)(=O)CC(C=C3CCC(=NO)CC3)N(O)C=O)cc2)c2ccccc2n1 (centres unmarked) [Example I-6, N-Hydroxy-N-[1-(4-hydroxyiminocyclohexylidenemethyl)-2-{4-(2-methylquinolin-4-ylmethoxy)benzenesulfonyl}ethyl]formamide]
43 µM | 20 µM | 10 µM | 40 µM | 6 µM |  |  | 0.2 µM | 30 µM |  |  |  | C=C1CCC(C(CS(=O)(=O)c2ccc(OCc3cc(C)cc(OC)c3)cc2)N(O)C=O)CC1 (centres unmarked) [Example I-7, N-Hydroxy-N-[2-{4-(3-methoxy-5-methylbenzyloxy)benzenesulfonyl)-1-(4-methylenecyclohexyl)ethyl]formamide]
> 100 µM | 2 µM | 2.2 µM | 40 µM | 2 µM |  |  | 0.08 µM | 35 µM |  |  |  | COc1cc(C)cc(COc2ccc(S(=O)(=O)CC(C3CCC4(CC3)OCCO4)N(O)C=O)cc2)c1 (centres unmarked) [Example I-8, N-[1-(1,4-Dioxaspiro[4.5]dec-8-yl)-2-{4-(3-methoxy-5-methylbenzyloxy)benzenesulfonyl}ethyl]-N-hydroxyformamide]
45 µM | 1.2 µM | 5 µM | 23 µM | 1.1 µM | 0.06 µM | 12 µM |  |  | 6 µM |  |  | Cc1cc(COc2ccc(S(=O)(=O)CC(CC3CCC4(CC3)OCCO4)N(O)C=O)cc2)c2ccccc2n1 (centres unmarked) [Example I-10]
45 µM | 2 µM | 7 µM | 35 µM | 0.6 µM | 0.02 µM | 28 µM |  |  | 30 µM |  |  | Cc1cc(COc2ccc(S(=O)(=O)CC(C3CCC(=O)CC3)N(O)C=O)cc2)c2ccccc2n1 (centres unmarked) [Example I-11, N-Hydroxy-N-{2-[4-(2-methylquinolin-4-ylmethoxy)benzenesulfonyl]-1-(4-oxocyclohexyl)ethyl}formamide]
45 µM | 3 µM | 10 µM | 35 µM | 2 µM |  |  | 0.07 µM | 28 µM | 30 µM |  |  | CON=C1CCC(C(CS(=O)(=O)c2ccc(OCc3cc(C)nc4ccccc34)cc2)N(O)C=O)CC1 (centres unmarked) [Example I-12]
60 µM | 3 µM | 10 µM | 40 µM | 0.7 µM |  |  | 0.021 µM | 28 µM | 40 µM |  |  | Cc1cc(COc2ccc(S(=O)(=O)CC(C3CCC(=NOC=O)CC3)N(O)C=O)cc2)c2ccccc2n1 (centres unmarked) [Example I-13]
30 µM |  |  | 23 µM |  |  |  |  |  |  |  |  | Cc1cc(COc2ccc(S(=O)(=O)CC(C3CCC(=NO)CC3)N(O)C=O)cc2)c2ccccc2n1 (centres unmarked) [Example I-14]
 |  |  |  |  |  |  | 0.005 µM |  |  |  |  | CCC(CC)C(=O)N1CCC(=CC(CS(=O)(=O)c2ccc(OCc3cc(C)nc4ccc(C)cc34)cc2)N(O)C=O)CC1 (centres unmarked) [Example I-173]
 |  |  |  |  |  |  | 0.015 µM |  |  |  |  | CCC(CC)CN1CCC(=CC(CS(=O)(=O)c2ccc(OCc3cc(C)nc4ccc(C)cc34)cc2)N(O)C=O)CC1 (centres unmarked) [Example I-174]
 |  |  |  |  |  |  | 0.011 µM |  |  |  |  | CCC(CC)C(=O)N1CCC(CC(CS(=O)(=O)c2ccc(OCc3cc(C)nc4ccc(C)cc34)cc2)N(O)C=O)CC1 (centres unmarked) [Example I-175]
 | 0.08 µM | 0.2 µM | 8 µM | 0.02 µM | 0.01 µM | 10 µM |  |  |  | 20 µM |  | Cc1cc(COc2ccc(S(=O)(=O)N3CCSC(C)(C)[C@@H]3C(=O)NO)cc2)cc(C)n1 [compound 1, reference compound]
 | 0.04 µM | 0.004 µM | 0.1 µM | 0.021 µM | 0.005 µM | 0.02 µM |  |  |  | 3 µM |  | C[C@@H]1O[C@@H](CO)CN(S(=O)(=O)c2ccc(OCc3ccc(F)cc3)cc2)[C@H]1C(=O)NO [compound 2, reference compound]
0.045 µM | 0.03 µM |  | 0.07 µM | 0.013 µM |  |  | 0.035 µM | 0.03 µM |  |  | 0.01 µM | CC[C@H](C)[C@H](NC(=O)[C@H](CC(C)C)[C@H](C(C)C)N(O)C=O)C(=O)Nc1ccccn1 [compound 3, (2R,3S)-3-(formylhydroxyamino)-2-(2-methyl-1-propyl)-4-methylpentanoic acid [(1S,2S)-2-methyl-1-(pyridin-2-ylcarbamoyl)-1-butyl]amide, reference compound]
